Columns and labels:
[1] = molecular target: voltage-gated sodium channel Nav1.7 (Homo sapiens (Human), UniProt Q15858); assay: Nav1.7 screening assay, IonWorks Quattro automated patch-clamp electrophysiology; type: cell-based; conditions: stable CHO or HEK293 cell line expressing Nav1.7; percent block at peak 1 and peak 10; 5 minutes compound incubation; read-out: Nav 1.7 IC50
Experimental: (§1) Assay Procedure Nav1.7 and Nav1.5 Screening Assay
(§2) Stable cell lines expressing the full-length protein of the voltage-gated sodium channels Nav1.7 or Nav1.5, with or without one beta-1, beta-2, beta-3, or beta-4 subunit, are created by transfected CHO cells or HEK293 cells, or any other suitable cell line, with a vector construct containing the complete open reading frame under a suitable promoter, as well known in the art.
(§3) Electrophysiological studies are performed with an IonWorks Quattro (Molecular Devices Corp.) automated patch-clamp electrophysiology platform as described by (Schroeder K et al. Journal of Biomolecular Screening 2003, 8 (1), 50-64). Buffers for the experiments have the following composition (mM): Internal solution; K-gluconate 100, KCl 40, MgCl2 3.2, HEPES 5, EGTA 3, pH 7.3. To this amphotericin B is added to final concentration of 0.1 mg/ml to generate access solution. External solution; Dulbecco's Phosphate buffered saline (D-PBS) NaCl 137.93, KCl 2.67, KH2PO4 1.47, Na2HPO4 8.06, CaCl2 0.90, MgCl2 0.49. Prior to the experiment the cells expressing the voltage-gated ion channel of interest are detached from the tissue culture flasks, centrifuged and resuspended in D-PBS. Compounds are prepared and serially diluted in DMSO and finally diluted 1:100 in D-PBS. Cells are exposed to compounds through the pipetting system integrated into the platform and the voltage-gated ion channel of interest is activated with specific voltage stimulation protocols. The following voltage stimulation protocol is used for testing compounds against the voltage-gated sodium channel Nav1.7; from a holding potential of −100 mV a train of eight 60 ms depolarising steps to −20 mV at a frequency of 14 Hz are employed followed by a further step to −20 mV for 2000 ms. After which the voltage is returned to −100 mV for 10 ms before another voltage step to −20 mV for 60 ms is applied. The following voltage stimulation protocol is used for testing compounds against the voltage-gated sodium channel Nav1.5; from a holding potential of −120 mV a train of twenty-six 120 ms depolarising steps to −20 mV at a frequency of 5 Hz are employed. Recordings are made before and after compound addition with the compound incubation time being 5 minutes.

[2] = molecular target: voltage-gated sodium channel Nav1.5 (Homo sapiens (Human), UniProt Q14524); assay: Nav1.5 screening assay, IonWorks Quattro automated patch-clamp electrophysiology; type: cell-based; conditions: stable CHO or HEK293 cell line expressing Nav1.5; percent block at peak 1 and 25; 5 minutes compound incubation; read-out: Nav 1.5 IC50
Chain of voltage-gated sodium channel Nav1.5 (Q14524 whole entry): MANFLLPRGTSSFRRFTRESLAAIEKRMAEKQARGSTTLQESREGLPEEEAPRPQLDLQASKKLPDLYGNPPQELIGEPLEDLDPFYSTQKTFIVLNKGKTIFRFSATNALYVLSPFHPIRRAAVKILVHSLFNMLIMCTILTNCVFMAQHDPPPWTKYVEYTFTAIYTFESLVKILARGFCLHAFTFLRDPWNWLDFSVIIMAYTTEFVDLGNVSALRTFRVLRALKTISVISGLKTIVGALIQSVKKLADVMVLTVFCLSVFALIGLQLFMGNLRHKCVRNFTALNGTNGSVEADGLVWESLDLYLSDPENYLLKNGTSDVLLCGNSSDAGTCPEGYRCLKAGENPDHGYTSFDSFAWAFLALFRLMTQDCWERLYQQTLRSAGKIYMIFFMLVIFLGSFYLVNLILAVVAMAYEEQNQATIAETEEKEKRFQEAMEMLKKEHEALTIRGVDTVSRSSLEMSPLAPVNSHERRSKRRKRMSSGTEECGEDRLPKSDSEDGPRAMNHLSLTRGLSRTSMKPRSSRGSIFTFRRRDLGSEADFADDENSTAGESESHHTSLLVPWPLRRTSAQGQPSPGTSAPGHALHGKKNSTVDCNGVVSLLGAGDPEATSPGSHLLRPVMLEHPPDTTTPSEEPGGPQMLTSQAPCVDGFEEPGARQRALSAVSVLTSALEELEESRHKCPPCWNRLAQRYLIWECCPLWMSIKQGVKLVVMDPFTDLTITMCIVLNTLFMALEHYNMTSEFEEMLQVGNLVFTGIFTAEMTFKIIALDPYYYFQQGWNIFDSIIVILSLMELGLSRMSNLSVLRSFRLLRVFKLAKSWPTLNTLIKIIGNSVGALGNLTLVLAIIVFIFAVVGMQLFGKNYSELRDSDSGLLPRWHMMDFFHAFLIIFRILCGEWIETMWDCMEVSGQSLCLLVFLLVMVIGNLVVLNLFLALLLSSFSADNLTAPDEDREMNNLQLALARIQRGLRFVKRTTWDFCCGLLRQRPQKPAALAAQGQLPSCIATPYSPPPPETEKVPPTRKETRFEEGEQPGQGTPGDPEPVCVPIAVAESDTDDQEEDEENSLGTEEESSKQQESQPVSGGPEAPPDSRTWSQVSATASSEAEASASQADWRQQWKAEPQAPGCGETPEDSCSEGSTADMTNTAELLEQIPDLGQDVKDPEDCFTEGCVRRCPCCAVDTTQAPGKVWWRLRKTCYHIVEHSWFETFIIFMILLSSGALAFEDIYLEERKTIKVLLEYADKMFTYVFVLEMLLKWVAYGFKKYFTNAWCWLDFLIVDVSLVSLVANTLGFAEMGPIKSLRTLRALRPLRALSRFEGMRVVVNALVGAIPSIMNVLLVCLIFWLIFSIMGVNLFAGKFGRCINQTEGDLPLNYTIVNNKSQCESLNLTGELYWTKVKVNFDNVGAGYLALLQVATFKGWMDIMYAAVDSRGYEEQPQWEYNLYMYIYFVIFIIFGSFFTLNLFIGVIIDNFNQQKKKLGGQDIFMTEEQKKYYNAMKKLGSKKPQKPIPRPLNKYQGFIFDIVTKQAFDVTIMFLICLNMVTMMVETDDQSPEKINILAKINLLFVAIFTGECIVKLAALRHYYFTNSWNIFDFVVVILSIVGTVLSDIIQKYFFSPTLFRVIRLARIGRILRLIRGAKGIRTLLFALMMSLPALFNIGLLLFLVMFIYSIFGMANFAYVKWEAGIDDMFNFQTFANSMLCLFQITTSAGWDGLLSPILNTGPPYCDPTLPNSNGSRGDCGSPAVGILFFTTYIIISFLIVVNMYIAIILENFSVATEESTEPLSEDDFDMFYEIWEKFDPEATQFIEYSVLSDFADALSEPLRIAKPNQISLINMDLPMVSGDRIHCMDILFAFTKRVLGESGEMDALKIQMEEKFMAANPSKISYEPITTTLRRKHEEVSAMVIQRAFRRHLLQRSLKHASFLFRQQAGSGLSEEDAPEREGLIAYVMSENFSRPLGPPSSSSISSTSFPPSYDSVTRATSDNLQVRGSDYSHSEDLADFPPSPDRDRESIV
Experimental: as §1, §2, §3

Chain of voltage-gated sodium channel Nav1.7 (Q15858 whole entry): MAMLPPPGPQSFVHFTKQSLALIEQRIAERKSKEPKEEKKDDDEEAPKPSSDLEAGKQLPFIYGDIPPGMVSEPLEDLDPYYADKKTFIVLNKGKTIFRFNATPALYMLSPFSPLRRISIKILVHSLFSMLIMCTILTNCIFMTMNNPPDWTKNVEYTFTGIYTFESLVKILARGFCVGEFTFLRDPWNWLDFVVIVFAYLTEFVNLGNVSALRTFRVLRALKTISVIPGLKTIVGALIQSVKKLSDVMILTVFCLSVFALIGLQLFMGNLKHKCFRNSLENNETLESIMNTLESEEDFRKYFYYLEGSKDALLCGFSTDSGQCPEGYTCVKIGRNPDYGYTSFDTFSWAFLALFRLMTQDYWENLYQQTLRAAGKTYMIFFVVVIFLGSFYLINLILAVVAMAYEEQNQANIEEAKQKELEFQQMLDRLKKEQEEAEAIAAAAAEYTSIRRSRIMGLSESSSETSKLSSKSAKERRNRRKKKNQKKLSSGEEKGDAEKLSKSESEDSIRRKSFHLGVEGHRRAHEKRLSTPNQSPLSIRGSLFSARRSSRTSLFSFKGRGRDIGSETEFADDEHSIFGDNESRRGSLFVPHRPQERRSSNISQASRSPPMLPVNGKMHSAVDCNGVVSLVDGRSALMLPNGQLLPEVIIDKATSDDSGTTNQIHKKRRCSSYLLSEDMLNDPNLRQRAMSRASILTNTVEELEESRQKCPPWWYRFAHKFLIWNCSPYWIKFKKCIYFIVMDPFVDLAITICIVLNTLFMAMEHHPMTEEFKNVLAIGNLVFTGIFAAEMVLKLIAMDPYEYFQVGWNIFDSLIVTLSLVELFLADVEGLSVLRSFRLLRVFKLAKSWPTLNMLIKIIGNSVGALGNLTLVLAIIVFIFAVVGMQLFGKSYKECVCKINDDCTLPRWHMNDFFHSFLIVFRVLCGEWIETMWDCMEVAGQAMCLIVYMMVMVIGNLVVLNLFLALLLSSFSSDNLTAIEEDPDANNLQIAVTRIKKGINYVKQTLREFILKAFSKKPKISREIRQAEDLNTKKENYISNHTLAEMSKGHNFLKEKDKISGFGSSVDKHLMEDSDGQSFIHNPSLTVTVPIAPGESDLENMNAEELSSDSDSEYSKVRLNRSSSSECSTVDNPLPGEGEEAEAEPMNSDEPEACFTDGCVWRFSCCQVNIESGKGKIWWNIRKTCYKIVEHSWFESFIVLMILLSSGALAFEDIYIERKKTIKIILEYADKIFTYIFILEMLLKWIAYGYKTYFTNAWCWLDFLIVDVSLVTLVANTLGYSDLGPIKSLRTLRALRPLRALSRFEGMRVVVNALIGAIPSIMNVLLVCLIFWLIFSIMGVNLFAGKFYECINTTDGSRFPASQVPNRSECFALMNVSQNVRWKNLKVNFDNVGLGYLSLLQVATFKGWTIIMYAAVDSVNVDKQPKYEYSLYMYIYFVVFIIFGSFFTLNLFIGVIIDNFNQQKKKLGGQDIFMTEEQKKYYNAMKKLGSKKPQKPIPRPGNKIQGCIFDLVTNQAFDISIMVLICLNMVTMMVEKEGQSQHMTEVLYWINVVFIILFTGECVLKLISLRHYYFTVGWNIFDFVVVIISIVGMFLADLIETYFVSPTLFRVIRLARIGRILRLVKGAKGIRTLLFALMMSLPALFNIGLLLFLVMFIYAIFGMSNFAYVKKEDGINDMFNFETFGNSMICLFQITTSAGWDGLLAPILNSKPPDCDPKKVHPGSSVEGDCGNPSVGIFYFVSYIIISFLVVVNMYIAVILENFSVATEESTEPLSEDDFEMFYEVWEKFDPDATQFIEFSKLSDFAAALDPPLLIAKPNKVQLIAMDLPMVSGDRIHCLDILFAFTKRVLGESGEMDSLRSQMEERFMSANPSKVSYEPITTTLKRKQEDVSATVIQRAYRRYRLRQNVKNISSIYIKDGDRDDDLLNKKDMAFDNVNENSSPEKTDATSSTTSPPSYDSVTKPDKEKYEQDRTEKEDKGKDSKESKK

Row | Compound | IC50 [1] [nM] | IC50 [2] [nM]
1 | 6-(2-(2,2,3,3,3-pentafluoropropoxy)phenyl)-1H-indazol-3-amine [Example 14] | 560 | 8000
2 | COc1ccc(OCC(F)(F)C(F)(F)F)c(-c2ccc3c(N)nn(C)c3c2)c1 [Example 3, 6-(5-methoxy-2-(2,2,3,3,3-pentafluoropropoxy)phenyl)-1-methyl-1H-indazol-3-amine] |  | > 33000
3 | Cn1nc(N)c2ccc(-c3ccccc3OCC(F)(F)F)cc21 [Example 8, 1-methyl-6-(2-(2,2,2-trifluoroethoxy)phenyl)-1H-indazol-3-amine] | 320 | > 33000
4 | Cn1nc(NCCO)c2ccc(-c3ccccc3OCC(F)(F)C(F)(F)F)cc21 [Example 12, 2-(1-methyl-6-(2-(2,2,3,3,3-pentafluoropropoxy)phenyl)-1H-indazol-3-ylamino)ethanol] | 820 | > 33000
5 | Cn1nc(N)c2ccc(-c3cccc(F)c3OCC(F)(F)C(F)(F)F)cc21 [Example 22, 6-(3-fluoro-2-(2,2,3,3,3-pentafluoropropoxy)phenyl)-1-methyl-1H-indazol-3-amine] | 100 | > 33000
6 | Cn1nc(N)c2ccc(-c3c(F)cccc3OCC(F)(F)C(F)(F)F)cc21 [Example 24, 6-(2-fluoro-6-(2,2,3,3,3-pentafluoropropoxy)phenyl)-1-methyl-1H-indazol-3-amine] | 560 | > 33000
7 | NC(=O)Cn1nc(N)c2ccc(-c3cccc(F)c3OCC(F)(F)C(F)(F)F)cc21 [Example 26, 2-(3-amino-6-(3-fluoro-2-(2,2,3,3,3-pentafluoropropoxy)phenyl)-1H-indazol-1-yl)acetamide] | 3650 | 
8 | Cn1nc(NCCCO)c2ccc(-c3ccccc3OCC(F)(F)C(F)(F)F)cc21 [Example 27, 3-(1-methyl-6-(2-(2,2,3,3,3-pentafluoropropoxy)phenyl)-1H-indazol-3-ylamino)propan-1-ol] | 1500 | 19800
9 | COc1cccc(-c2ccc3c(N)nn(C)c3c2)c1OCC(F)(F)F [Example 40, 6-(3-methoxy-2-(2,2,2-trifluoroethoxy)phenyl)-1-methyl-1H-indazol-3-amine] | 200 | > 33000
10 | COc1cccc(-c2ccc3c(N)nn(C)c3c2)c1OCC(F)F [Example 41, 6-(2-(2,2-difluoroethoxy)-3-methoxyphenyl)-1-methyl-1H-indazol-3-amine] |  | > 33000
11 | Cn1nc(N)c2ccc(-c3cccc(F)c3OCC(F)F)cc21 [Example 42, 6-(2-(2,2-difluoroethoxy)-3-fluorophenyl)-1-methyl-1H-indazol-3-amine] | 290 | 23000
12 | CN1CCC(CNc2nn(C)c3cc(-c4cccc(F)c4OCC(F)(F)F)ccc23)CC1 [Example 44, 6-(3-fluoro-2-(2,2,2-trifluoroethoxy)phenyl)-1-methyl-N-((1-methylpiperidin-4-yl)methyl)-1H-indazol-3-amine] | 1860 | 4500
13 | Cn1nc(N)c2ccc(-c3cccnc3OCC(F)(F)F)cc21 [Example 47, 1-methyl-6-(2-(2,2,2-trifluoroethoxy)pyridin-3-yl)-1H-indazol-3-amine] | 2370 | > 33000
14 | CNc1nn(C)c2cc(-c3cccc(F)c3OCC(F)F)ccc12 [Example 57, 6-(2-(2,2-difluoroethoxy)-3-fluorophenyl)-N,1-dimethyl-1H-indazol-3-amine] | 1300 | > 33000
15 | Cn1nc(N)c2ccc(-c3cccc(F)c3OC(F)F)cc21 [Example 58, 6-(2-(difluoromethoxy)-3-fluorophenyl)-1-methyl-1H-indazol-3-amine] | 860 | > 33000
16 | Nc1nn(CCCO)c2cc(-c3ccccc3C(F)(F)F)ccc12 [Example 67, 3-(3-amino-6-(2-(trifluoromethyl)phenyl)-1H-indazol-1-yl)propan-1-ol] | 740 | 30000
17 | Nc1nn(CCCO)c2cc(-c3ccccc3OC(F)(F)F)ccc12 [Example 68, 3-(3-amino-6-(2-(trifluoromethoxy)phenyl)-1H-indazol-1-yl)propan-1-ol] | 200 | 25000
18 | COCCn1nc(N)c2ccc(-c3ccccc3OC(F)(F)F)cc21 [Example 82, 1-(2-methoxyethyl)-6-(2-(trifluoromethoxy)phenyl)-1H-indazol-3-amine] | 2000 | 
